# Tested on: MV-4-11 (human, Acute Myeloid Leukemia cell line) cells
# Assay: Cell growth inhibition assay, GI50 of MV-4-11
# Assay type: cell-based
# Details: Homo sapiens, MV4-11, 72 h, MV-4-11 cells
# Protocol: The anti-proliferative activity (cell growth inhibition assay) of the compounds according to the present invention against AML (Acute Myeloid Leukemia) cancer cells was measured. […] The lower the GI50 value, the higher the anti-proliferative activity.
# A cell growth Inhibition assay was performed to investigate the rate of inhibition of cell proliferation by the compounds of the present invention. MV-4-11 (human, Acute Myeloid Leukemia cell line) cells were cultured in Iscove's modified Dulbecco's medium (IMDM) including 10% fetal bovine serum (FBS), 1× penicillin/streptomycin (10,000 units/ml Penicillin, […] Streptomycin in 0.85% NaCl). MV-4-11 cells were harvested with the IMDM and 5×10^4 cells/well were transferred to each well of 96-well culture plates (Nunc, #167008).
# The compounds of Examples 1 to 5 were exposed to serial dilution and duplicated for each concentration. For the serial dilution, the compounds of the present invention were repeatedly diluted with the same volume of media onto 96-well assay block (costar, #3956). After the dilution, each compound was added to each well.
# Also, the background absorbance was measured during the treatment with the test compounds by replacing the test compound with IMDM in the negative control plate. The plates were incubated for three days (72 hours) at 37 in the humidified incubator containing 5% CO2. On the last day, 20 µl of a CellTiter 96 Aqueous One Solution (Promega #G3581) was added to the culture in each well and the plates were incubated for a few hours at 37 in the humidified incubator containing 5% CO2. After the incubation, the absorbance of each cell was measured at 490 nm using an EnVision (Perkinelmer, USA).
# The GI50 values were calculated using a Prism 3.0 program.
row,GI50 [nM],SMILES
1,1.37,C=CCN1CC(=O)N2[C@@H](Cc3ccc(O)cc3)C(=O)N(Cc3cccc4c(C(=O)Nc5ccc(N(C)Cc6cncn6C)nc5)cn(C)c34)C[C@@H]2N1C(=O)NCc1ccccc1 [Compound G-34]
2,1.4,C=CCN1CC(=O)N2[C@@H](Cc3ccc(O)cc3)C(=O)N(Cc3cccc4c(-c5ccc(C(=O)NNC)cc5)cn(C)c34)C[C@@H]2N1C(=O)NCc1ccccc1 [Compound D-33]
3,6.1,C=CCN1CC(=O)N2[C@@H](Cc3ccc(O)cc3)C(=O)N(Cc3cccc4c(C(=O)N(C)CCCc5c(C)nn(C)c5C)cn(C)c34)C[C@@H]2N1C(=O)NCc1ccccc1 [Compound F-38]
4,8.9,C=CCN1CC(=O)N2[C@@H](Cc3ccc(O)cc3)C(=O)N(Cc3cccc4c(C(=O)N5CCN(C(C)(C)C)CC5)cn(C)c34)C[C@@H]2N1C(=O)NCc1ccccc1 [Compound E-8]
5,3.4,C=CCN1CC(=O)N2[C@@H](Cc3ccc(O)cc3)C(=O)N(Cc3cccc4c(-c5ccc(C(=O)NOC(C)(C)C)cc5)cn(C)c34)C[C@@H]2N1C(=O)NCc1ccccc1 [Compound D-46]
6,1.3,C=CCN1CC(=O)N2[C@@H](Cc3ccc(O)cc3)C(=O)N(Cc3cccc4c(-c5ccc(NC(=O)C6CCN(C(C)=O)CC6)nc5)cn(C)c34)C[C@@H]2N1C(=O)NCc1ccccc1 [Compound D-89]
7,1.3,C=CCN1CC(=O)N2[C@@H](Cc3ccc(O)cc3)C(=O)N(Cc3cccc4c(-c5cccc(C(=O)N6CCN(C)CC6)c5)cn(C)c34)C[C@@H]2N1C(=O)NCc1ccccc1 [Compound D-2]
8,1.2,C=CCN1CC(=O)N2[C@@H](Cc3ccc(O)cc3)C(=O)N(Cc3cccc4c(-c5ccc(C(=O)Nc6ccc(N7CCNCC7)cc6)cc5)cn(C)c34)C[C@@H]2N1C(=O)NCc1ccccc1 [Compound D-13]
9,5.7,C=CCN1CC(=O)N2[C@@H](Cc3ccc(O)cc3)C(=O)N(Cc3cccc4c(-c5ccc(C(C)=O)s5)cn(C)c34)C[C@@H]2N1C(=O)NCc1ccccc1 [Compound H-8]
10,1.3,C=CCN1CC(=O)N2[C@@H](Cc3ccc(O)cc3)C(=O)N(Cc3cccc4c(-c5ccc(NC(=O)N6CCN(C)CC6)nc5)cn(C)c34)C[C@@H]2N1C(=O)NCc1ccccc1 [Compound D-87]
11,19.9,C=CCN1CC(=O)N2C(CN(Cc3cccc4c(C(=O)Nc5ccc(N)nc5)cn(C)c34)C(=O)[C@@H]2Cc2ccc(O)cc2)N1C(=O)NCc1ccccc1 (stereo partly shown) [Compound G-9]
12,4.3,C=CCN1CC(=O)N2[C@@H](Cc3ccc(O)cc3)C(=O)N(Cc3cccc4c(-c5ccc(C(=O)NCc6ccccc6)cc5)cn(C)c34)C[C@@H]2N1C(=O)NCc1ccccc1 [Compound D-27]
13,1.6,C=CCN1CC(=O)N2[C@@H](Cc3ccc(O)cc3)C(=O)N(Cc3cccc4c(C(=O)NCc5cccc(N6CCOCC6)n5)cn(C)c34)C[C@@H]2N1C(=O)NCc1ccccc1 [Compound F-50]
14,1.2,C=CCN1CC(=O)N2[C@@H](Cc3ccc(O)cc3)C(=O)N(Cc3cccc4c(-c5ccc(NC(=O)c6ccc(CN(C)C)cc6)cc5)cn(C)c34)C[C@@H]2N1C(=O)NCc1ccccc1 [Compound D-54]
15,9.9,C=CCN1CC(=O)N2[C@@H](Cc3ccc(O)cc3)C(=O)N(Cc3cccc4c(-c5ccc(NC(=O)Nc6ccncn6)cc5)cn(C)c34)C[C@@H]2N1C(=O)NCc1ccccc1 [Compound D-81]
16,2.7,C=CCN1CC(=O)N2[C@@H](Cc3ccc(O)cc3)C(=O)N(Cc3cccc4c(-c5ccc(NC(=O)NC(C)C)nc5)cn(C)c34)C[C@@H]2N1C(=O)NCc1ccccc1 [Compound D-99]
17,2,C=CCN1CC(=O)N2[C@@H](Cc3ccc(O)cc3)C(=O)N(Cc3cccc4c(C(=O)N(C)CC(C)(C)CO)cn(C)c34)C[C@@H]2N1C(=O)NCc1ccccc1 [Compound F-8]

row,GI50 [nM],SMILES
1,15.4,C=CCN1CC(=O)N2[C@@H](Cc3ccc(O)cc3)C(=O)N(Cc3cccc4c(C(=O)N5CCN(c6ccc(O)cc6)CC5)cn(C)c34)C[C@@H]2N1C(=O)NCc1ccccc1 [Compound E-40]
2,1.4,C=CCN1CC(=O)N2[C@@H](Cc3ccc(O)cc3)C(=O)N(Cc3cccc4c(-c5ccc(C(=O)N6CCCCC6)cc5)cn(C)c34)C[C@@H]2N1C(=O)NCc1ccccc1 [Compound D-4]
3,4.6,C=CCN1CC(=O)N2[C@@H](Cc3ccc(O)cc3)C(=O)N(Cc3cccc4c(C(=O)NCCc5cccnc5)cn(C)c34)C[C@@H]2N1C(=O)NCc1ccccc1 [Compound F-52]
4,1.3,C=CCN1CC(=O)N2[C@@H](Cc3ccc(O)cc3)C(=O)N(Cc3cccc4c(-c5ccc(NC(=O)N6CC(N7CCOCC7)C6)cc5)cn(C)c34)C[C@@H]2N1C(=O)NCc1ccccc1 [Compound D-66]
5,2,C=CCN1CC(=O)N2[C@@H](Cc3ccc(O)cc3)C(=O)N(Cc3cccc4c(C(=O)N5CCN6CCN(CC7CCCCC7)CC6C5)cn(C)c34)C[C@@H]2N1C(=O)NCc1ccccc1 (stereo partly shown) [Compound E-46]
6,1.4,C=CCN1CC(=O)N2[C@@H](Cc3ccc(O)cc3)C(=O)N(Cc3cccc4c(-c5ccc(NC(=O)c6ccc(-n7ccnc7)nc6)cc5)cn(C)c34)C[C@@H]2N1C(=O)NCc1ccccc1 [Compound D-68]
7,10.8,C=CCN1CC(=O)N2[C@@H](Cc3ccc(O)cc3)C(=O)N(Cc3cccc4c(-c5ccc(C(=O)NC6CCN(C)CC6)o5)cn(C)c34)C[C@@H]2N1C(=O)NCc1ccccc1 [Compound D-103]
8,1.8,C=CCN1CC(=O)N2[C@@H](Cc3ccc(O)cc3)C(=O)N(Cc3cccc4c(-c5ccc(C(=O)N(N)C(C)C)cc5)cn(C)c34)C[C@@H]2N1C(=O)NCc1ccccc1 [Compound D-42]
9,1.2,C=CCN1CC(=O)N2[C@@H](Cc3ccc(O)cc3)C(=O)N(Cc3cccc4c(-c5ccc(C(=O)NN6CCOCC6)cc5)cn(C)c34)C[C@@H]2N1C(=O)NCc1ccccc1 [Compound D-43]
10,11.4,C=CCN1CC(=O)N2[C@@H](Cc3ccc(O)cc3)C(=O)N(Cc3cccc4c(C(=O)NCc5cccc(N6CCCC6)n5)cn(C)c34)C[C@@H]2N1C(=O)NCc1ccccc1 [Compound F-49]
11,10.5,C=CCN1CC(=O)N2C(CN(Cc3cccc4c(C(=O)Nc5ccc(SC)cc5)cn(C)c34)C(=O)[C@@H]2Cc2ccc(O)cc2)N1C(=O)NCc1ccccc1 (stereo partly shown) [Compound G-7]
12,3.3,C=CCN1CC(=O)N2[C@@H](Cc3ccc(O)cc3)C(=O)N(Cc3cccc4c(-c5cccc(C(=O)NC6CCCCC6)c5)cn(C)c34)C[C@@H]2N1C(=O)NCc1ccccc1 [Compound D-9]
13,2.3,C=CCN1CC(=O)N2[C@@H](Cc3ccc(O)cc3)C(=O)N(Cc3cccc4c(C(=O)N5CCN(Cc6ccccc6)CC5)cn(C)c34)C[C@@H]2N1C(=O)NCc1ccccc1 [Compound E-26]
14,1.5,C=CCN1CC(=O)N2[C@@H](Cc3ccc(O)cc3)C(=O)N(Cc3cccc4c(C(=O)N(C)CCCNC(C)C)cn(C)c34)C[C@@H]2N1C(=O)NCc1ccccc1 [Compound F-19]
15,5.1,C=CCN1CC(=O)N2[C@@H](Cc3ccc(O)cc3)C(=O)N(Cc3cccc4c(C(=O)N5CCN(Cc6cccc(OC)c6)CC5)cn(C)c34)C[C@@H]2N1C(=O)NCc1ccccc1 [Compound E-35]
16,9.3,C=CCN1CC(=O)N2C(CN(Cc3cccc4c(C(=O)Nc5ccc(NCCCO)nc5)cn(C)c34)C(=O)[C@@H]2Cc2ccc(O)cc2)N1C(=O)NCc1ccccc1 (stereo partly shown) [Compound G-19]

# Same assay, conditions: MV-4-11 cells, 72 hours; read-out: MV4-11 GI50
row,GI50 [nM],SMILES
1,5.6,C=CCN1CC(=O)N2[C@@H](Cc3ccc(O)cc3)C(=O)N(Cc3cccc4c(C(=O)N5CCN(Cc6ccccn6)CC5)cn(C)c34)C[C@@H]2N1C(=O)NCc1ccccc1 [Compound E-28]

# Reference: patent publication US8940739B2, “Compound of a reverse-turn mimetic and a production method and use therefor” (JW Pharmaceutical Corporation, priority 2010, dated 2015)
